Measured values from patent publication US7951789B2 (priority 2006, dated 2011).
Where “and” joins values, the source holds several entries; their conditions need not be identical. Identical values can stand only once. Like-named read-outs stand apart in the source and are kept apart here.

Experiments:
[1] = In vivo studies in rat: distribution of A550 and LddATP in the liver; settings: male rats
Procedure: Distribution of NM-204 (the compound of Example 1 (Hydroxy-tBuSATE N-benzylphosphoramidate derivative of L-ddA) (A550) in the rat liver was evaluated following a single intravenous (I.V.) or oral administration of A550 (NM-204) at a dose of 20 (oral) or 10 (I.V.) mg/Kg body weight. The dose solutions were prepared on the same day prior to dose administration.
At the specified time point (1 and 3 hours for IV animals or 1, 3 and 8 hours for oral animals), each animal was euthanized by CO2 gas followed by exsanguination via the abdominal vein. Livers were collected immediately after sacrifice, flash frozen in liquid nitrogen, placed on dry ice, and later stored at −70° C., before being analyzed.
Control rat liver samples were taken from whole frozen livers (Bioreclamation, Inc. Hicksville, N.Y.) with the aid of a tissue coring utensil (Harris Unicore, 8.0 mm, VWR,). Each ˜0.1 g sample was placed in individual 2 mL poly vials with 0.940 mL of 80% MeOH/20% DIH2O and homogenates were prepared using a mechanical tissue disruptor (Tissue Master, Omni-International, Inc, Marietta Ga.). The vials received a 10 μl aliquot of a working stock solution and a 50 μl aliquot of the ISTD before vortexing for ˜30 sec. The mixtures were stored overnight at −20° C. and the next day were removed for 10 min of centrifugation in a benchtop centrifuge. Each supernatant was transferred to individual centrifugation filtration units (0.45 μm) and the resulting filtrates were transferred to HPLC vials for the LC/MS/MS analysis. The final concentrations of ddATP in the calibration standards was 1000, 500, 250, 125, 50, and 0 pmol/ml. Each calibration standard was directly injected in a 50 μL volume onto the ion-exchange column for analysis. Standard curve analysis of calibration standards from control liver extracts was conducted.
Analysis of ddATP was done by an ion-exchange chromatography method with on-line positive ionization ESI-MS/MS detection in multiple reaction monitoring (MRM) detection mode. […] This is equivalent to a range of […] per gram liver by the sample preparation employed. The HPLC MS MS conditions described in Example 5 were utilized.

[2] = system: wild-type HBV (secreted virions); assay: Anti-HBV activity in HBV virions via endogenous polymerase assay (EPA); assay type: cell-based; settings: Hepatitis B virus, read-out: Virion EC50 (μM)
Procedure: (§1) Compounds were tested in an anti-HBV assay. Determination of anti-HBV activity in HBV virions and nucleocapsids via endoenous polymerase assays (EPA)
(§2) • 1. 12-well collagen-I coated plates were seeded with producer cells expressing wild-type HBV at a density of 0.5-1×10^6 cells per well in 2 ml growth/selection media. • 2. Drug stock solutions were made up freshly in 100% DMSO as 200× stocks. Five additional 4-fold dilutions were prepared from these 200× stock in 100% DMSO. For each experiment, 4 aliquots of each drug dilution series were stored at −20° C. until used. • 3. Once cells reached confluency (1 day after cells were seeded), drug treatment was initiated by adding 10 μl of drug dilution into 2 ml of fresh growth/selection media. […] The no-drug control wells received only 10 μl of DMSO in fresh media. • 4. Cells were treated every-other-day with 2 ml of fresh drug/medium for a total of 8 days. Cell lysates were then collected on day 10 and subjected to EPA analysis as described below. Preparation of Nucleocapsid-Containing Lysates for Epa Analysis • 1. Cells were grown for 3 to 4 days in 12-well collagen-I coated plates until confluent. • 2. Media was carefully aspirated and the cell monolayers were rinsed once with 1 ml of PBS. • 3. One ml of lysis buffer (50 mM Tris-HCl pH 7.5/150 mM NaCl/5 mM MgCl2/0.2% NP-40) was added to each well. Plates were stored on ice for 30 min to 4 h. • 4. Lysed cells were transferred to 1.5 ml-microfuge tubes. • 5. Lysates were clarified by spinning at 14,000 rpm for 5 min at room temperature. • 6. Clarified lysates were transferred to fresh tubes and immediately frozen on dry-ice, then stored at −80° C. until endogenous polymerase assays were performed as described below. Preparation of Secreted Virions from Supernatant for Epa Analysis • 1. Cells were grown for 3 to 4 days in 12-well collagen-I coated plates until confluent. • 2. Media was carefully aspirated and transferred to 1.5 ml-microfuge tubes. • 3. Supernatants were clarified by spinning at 14,000 rpm for 5 min at room temperature. • 4. Clarified supernatants were transferred to fresh tubes and immediately frozen on dry-ice, then stored at −80° C. until endogenous polymerase assays were performed essentially as described below. Endogenous Polymerase Assay (EPA) of Cell Lysates and Supernatants • 1. EPAs were performed essentially as described by Seifer et al (1998). Intracellular HBV nucleocapsids were immunoprecipitated from the cytoplasmic lysates overnight at 4° C. with a polyclonal rabbit anti-HBcAg antibody and immobilized on protein A sepharose CL-4B beads. Secreted virions were immunoprecipitated from clarified cell supernatants overnight at 4° C. with a monoclonal mouse anti-LS antibody (MA18/7) in the absence of detergent. • 2. Following 3 washes of the immobilized capsids or virions with 1 ml of EPA wash buffer (75 mM NH4Cl, 50 mM Tris-HCl pH 7.4, 1 mM EDTA), endogenous polymerase reactions were initiated by adding 50 μl of detergent-containing EPA cocktail (50 mM Tris-HCl pH7.4, 75 mM NH4Cl, 1 mM EDTA, 20 mM MgCl2, 0.1 mM β-ME, 0.5% NP-40, 100 μM cold dGTP, TTP, dCTP, and 50 nM ^33P-dATP) and incubated overnight at 37° C. The detergent is required to strip the outer envelope from immunoprecipitated virions as well as to enhance permeability of the nucleocapsids. • 3. Following digestion with 1 mg/ml of proteinase K for 1 h at 37° C., endogenously ^33P-labeled HBV DNA was liberated via phenol/chloroform extraction. • 4. The nucleic acids were precipitated with 1 volume of 5M NH4-acetate and 2.5 volumes of 100% EtOH, and then separated on a 1% native agarose gel in Tris-borate-EDTA buffer. • 5. Gels were blotted onto positively charged nylon membrane overnight at room temperature via capillary transfer in 0.4 N NaOH. • 6. Dried membranes were exposed to a Phosphorlmager screen (GE Healthcare) overnight at room temperature, then scanned (Storm 860, GE Healthcare) and quantitated with ImageQuant software (GE Healthcare). • 7. […]

[3] = system: wild-type HBV (intracellular nucleocapsids); assay: Anti-HBV activity in HBV nucleocapsids (RI) via endogenous polymerase assay (EPA); assay type: cell-based; settings: Hepatitis B virus
Procedure: as §1, §2

[4] = system: HCV Conl subgenomic replicon (GS4.1 cells); assay: HCV replicon assay (NS4A ELISA, HCV ELISA 2); assay type: cell-based; settings: Hepatitis C virus
Procedure: (§3) Huh-7 cells containing HCV Conl subgenomic replicon (GS4.1 cells), (C. Seeger; Fox Chase University, Philadelphia, Pa., USA), are grown in Dulbecco's Modified Eagle Medium (DMEM) supplemented with 10% fetal bovine serum (FBS), 2 mM L-glutamine, 110 mg/L sodium pyruvate, 1×non-essential amino acids, 100 U/mL penicillin-streptomycin and 0.5 mg/mL G418 (Invitrogen). For dose-response testing, the cells are seeded in 96-well plates at 7.5×10^3 cells/well in a volume of 50 μL and incubated at 37° C./5% CO2. Three hours after plating, 50 μL of ten 2-fold serial dilutions of compounds (highest concentration, 75 μM) are added and cell cultures were incubated at 37° C./5% CO2 in the presence of 0.5% DMSO. Alternatively, compounds are tested at a single concentration of 15 μM. In all cases, Huh-7 cells lacking the HCV replicon served as negative control. The cells are incubated in the presence of compounds for 72 hours after which they were monitored for expression of the NS4A protein by enzyme-linked immunosorbent assay (ELISA). For this, the plates were then fixed for 1 min with 1:1 acetone:methanol, washed twice with phosphate-buffered saline (PBS), 0.1% Tween 20, blocked for 1 hour at room temperature with TNE buffer containing 10% FBS and then incubated for 2 h at 37° C. with the anti-NS4A mouse monoclonal antibody A-236 (ViroGen) diluted in the same buffer. After washing three times with PBS, 0.1% Tween 20, the cells are incubated 1 hour at 37° C. with anti-mouse immunoglobulin G-peroxidase conjugate in TNE, 10% FBS. After washing as described above, the reaction is developed with O-phenylenediamine (Zymed). The reaction is stopped after 30 minutes with […] and the absorbance is read at 492 nm using a Sunrise Tecan spectrophotometer. EC50 values are determined from the % inhibition versus concentration data using a sigmoidal non-linear regression analysis based on four parameters with Tecan Magellan software. […] For cytotoxicity evaluation, GS4.1 cells are treated with compounds as described above and cellular viability was monitored using a Cell Titer 96 AQueous One Solution Cell Proliferation Assay (Promega). CC50 values are determined from the % cytotoxicity versus concentration data with Tecan Magellan software as described above.

[5] = Cytotoxicity evaluation in GS4.1 cells (Cell Titer 96 AQueous One Solution); assay type: cell-based; settings: human
Procedure: as §3

[6] = IV dose 10 mg/kg, 1 hr, individual animals, 10 mg/kg
[7] = IV dose 10 mg/kg, 3 hrs, individual animals, 10 mg/kg
[8] = Oral dose 20 mg/kg, 1 hr, individual animals, 20 mg/kg
[9] = Oral dose 20 mg/kg, 3 hrs, individual animals, 20 mg/kg
[10] = Oral dose 20 mg/kg, 8 hrs, individual animals, 20 mg/kg
[11] = wild-type HBV producer cell line, intracellular nucleocapsids, EPA, read-out: RI EC50
[12] = 72 h, read-out: HCV ELISA 2 EC50 (μM)

Compound: Hydroxy-tBuSATE N-benzylphosphoramidate derivative of L-ddA [A550 (Ex 1)]
- Concentration Compound (A550) (Ex 1) in liver ([1]; IV dose 10 mg/kg, 1 hr, Mean): 80.0 pmol/g liver
- Concentration Compound (A550) (Ex 1) in liver [1, 6]: 65.8 pmol/g liver and 89.1 pmol/g liver and 85.1 pmol/g liver
- Concentration ddA-TP in liver [1, 6]: 2025 pmol/g liver and 1930 pmol/g liver and 1355 pmol/g liver
- Concentration ddA-TP in liver ([1]; IV dose 10 mg/kg, 1 hr, individual animals, hepatocellularity 114 × 10^6 cells per gram liver, 10 mg/kg): 17.8 pmol/10^6 cells and 16.9 pmol/10^6 cells and 11.9 pmol/10^6 cells
- Concentration Compound (A550) (Ex 1) in liver ([1]; IV dose 10 mg/kg, 3 hrs, Mean): 27.9 pmol/g liver
- Concentration Compound (A550) (Ex 1) in liver [1, 7]: 28.3 pmol/g liver and 26.0 pmol/g liver and 29.3 pmol/g liver
- Concentration ddA-TP in liver [1, 7]: 1345 pmol/g liver and 11.8 pmol/10^6 cells and 1940 pmol/g liver and 17.0 pmol/10^6 cells and 2990 pmol/g liver and 26.2 pmol/10^6 cells
- Concentration Compound (A550) (Ex 1) in liver ([1]; Oral dose 20 mg/kg, 1 hr, Mean): 251 pmol/g liver
- Concentration Compound (A550) (Ex 1) in liver [1, 8]: 411 pmol/g liver and 272 pmol/g liver and 70.2 pmol/g liver
- Concentration ddA-TP in liver [1, 8]: 210 pmol/g liver and 1.8 pmol/10^6 cells and 575 pmol/g liver and 5.0 pmol/10^6 cells and 400 pmol/g liver and 3.5 pmol/10^6 cells
- Concentration Compound (A550) (Ex 1) in liver ([1]; Oral dose 20 mg/kg, 3 hrs, Mean): 204 pmol/g liver
- Concentration Compound (A550) (Ex 1) in liver [1, 9]: 360 pmol/g liver and 92.1 pmol/g liver and 161 pmol/g liver
- Concentration ddA-TP in liver [1, 9]: 200 pmol/g liver and 1.8 pmol/10^6 cells and 330 pmol/g liver and 2.9 pmol/10^6 cells and 405 pmol/g liver and 3.6 pmol/10^6 cells
- Concentration Compound (A550) (Ex 1) in liver ([1]; Oral dose 20 mg/kg, 8 hrs, Mean): 20.1 pmol/g liver
- Concentration Compound (A550) (Ex 1) in liver [1, 10]: 16.4 pmol/g liver and 28 pmol/g liver and 16.2 pmol/g liver
- Concentration ddA-TP in liver [1, 10]: 280 pmol/g liver and 2.5 pmol/10^6 cells and 805 pmol/g liver and 5.2 pmol/10^6 cells and 275 pmol/g liver and 2.4 pmol/10^6 cells

Compound: CC(C)NP(=O)(OCCSC(=O)C(C)(C)CO)OC[C@@H]1CC[C@H](n2cnc3c(N)ncnc32)O1 (stereo partly shown) [A348 (NM 48)]
- EC50 [2]: < 1 µM

Compound: Cc1cn([C@@H]2CC(O)[C@H](CO)O2)c(=O)[nH]c1=O (stereo partly drawn) [L-dT, Telbivudine, reference compound]
- EC50 [3, 11]: < 1 µM

Compound: CC(C)NP(=O)(OCCSC(=O)C(C)(CO)CO)OC[C@@H]1CC[C@H](n2cnc3c(N)ncnc32)O1 (stereo partly shown) [A362 (NM 77)]
- EC50 [2]: 1 to 10 µM
- EC50 [3, 11]: 1 to 10 µM

Compound: CC(C)N(C(C)C)P(=O)(OCCSC(=O)C(C)(C)CO)OC[C@@H]1CC[C@H](n2cnc3c(N)ncnc32)O1 (stereo partly shown) [A616 (NM 128)]
- EC50 ([3]; read-out: RI EC50 (μM)): 1 to 10 µM

Compound: CC(C)NP(=O)(OCCSC(=O)C(C)(C)CO)OC[C@H]1CC[C@@H](n2cnc3c(N)ncnc32)O1 (stereo partly shown) [Example C791]
- EC50 [2]: 1 to 10 µM

Compound: CC(C)(CO)C(=O)SCCOP(=O)(OC[C@H]1O[C@@H](n2ccc(N)nc2=O)[C@](C)(O)[C@@H]1O)N1CCOCC1 (mixture of isomers) [Example B391, Hydroxy-tBuSATE N-morpholinophosphosphoramidate Derivative of 2′-C-methylcytidine]
- EC50 [4, 12]: > 10 µM
- CC50 at 72 h [5]: > 75 µM

Compound: CC(C)(CO)C(=O)SCCOP(=O)(OC[C@H]1O[C@@H](n2ccc(N)nc2=O)[C@](C)(O)[C@@H]1O)N1CCCCC1 (mixture of isomers) [Example B353, Hydroxy-tBuSATE N-piperidinephosphosphoramidate Derivative of 2′-C-methyl-cytidine]
- EC50 [4, 12]: > 10 µM
- CC50 at 72 h [5]: > 75 µM

Compound: CC(C)(CO)C(=O)SCCOP(=O)(NCc1ccccc1)OC[C@H]1O[C@@H](n2cc(F)c3c(N)ncnc32)[C@](C)(O)[C@@H]1O (mixture of isomers) [Example B436, Hydroxy-tBuSATE N-benzylphosphoramidate Derivative of 2′-C-methyl-7-deaza-7-fluoro-adenosine]
- EC50 ([4]; GS4.1 cells, 72 hours, NS4A ELISA, read-out: HCV ELISA 2 EC50): 1 to 10 µM
- CC50 ([5]; 72 hours): > 75 µM
